For assay [1], the system named is MCF-7 breast adenocarcinoma cells. The assay is described as follows: MTT cytotoxicity assay, MCF-7. The format is cell-based, human. Conditions: for IC50: Homo sapiens, MCF7, MTT, 48 h, means ± SD of three independent experiments; for SI Values MCF-7: selectivity index, MCF-7 over normal Vero cells. How it is done:
(§1) The in vitro cytotoxicity of the synthesized 1,3,4-thiadiazole derivatives against breast adenocarcinoma cells (MCF-7) and human hepatocellular carcinoma (HepG2) cell lines were evaluated by the MTT assay, using 5-Fluorouracil (5-FU) as a positive control.
(§2) Human hepatocellular carcinoma (HepG2) cells and breast adenocarcinoma (MCF7) cells were purchased from the American Type Culture Collection (ATCC, USA). Under 37 °C with 5% CO2 in a humid incubator, cells were propagated using RPMI supplemented with 10% fetal bovine serum (FBS) and 1% v/v penicillin-streptomycin.
(§3) According to Tim Mosmann’s approach, an MTT assay was performed to assess the antiproliferative properties of the compounds. In short, HepG2 or MCF7 cells (0.5 × 105) were grown in flat-bottom 96-well microplates in 180 μL/well RPMI media supplemented with 10% fetal bovine serum, 2μmol/mL L-glutamine, 250 ng/mL fungizone, and 100 units/mL penicillin-streptomycin solutions at 37 °C in a CO2 incubator. Following incubation, 180 μL/well of the new serum-free medium was added to each well after the old media had been withdrawn. After that, cells were exposed to 20 μL of various concentrations of the compounds (50–0.75 μg/mL) and were incubated for 48 h at 37 °C in a humidified 5% CO2 environment. The MTT solution (20 µL/well) was added and incubated for a further 4 h. The plate was agitated at room temperature while acidified isopropanol (160 μL/well) was added to dissolve the formazan crystals. The absorbance at 570 nm was then determined photometrically using the microplate ELISA reader (FLUOstar Omega, BMG, Labtech, Germany). Graph-Pad PRISM version 6 was used to determine the IC50 for each compound.
In general terms: Tetrazolium dyes change colour on reduction, which living cells bring about.

The test system of assay [2] is HepG2 cells. The assay is described as follows: AO/EB fluorescent stain, apoptotic and necrotic cells, HepG2. The format is cell-based, human. Conditions: HepG2, IC50 concentration, 48 h, vs untreated control cells. On the procedure:
(§4) Morphologically, there are three different modes of cell death: apoptosis, autophagy, and necrosis (types I, II, and III, respectively).
(§5) Fluorescence labeling with acridine orange/ethidium bromide (AO/EB) was used to determine the ratio between apoptosis and necrosis to evaluate the mode of cell death. HepG2 and MCF-7 cells were seeded in six-well plates with DMEM media supplemented with 10% FBS and allowed to settle overnight at 37 °C with 5% CO2 in a humidified incubator. […] 5-FU was used as a positive standard for both cell lines. After incubation, cells were collected by trypsinization and stained using a dye solution of AO and EB in PBS (1:1) for 20 min. The cells were examined using fluorescence microscopy. Each sample had at least 500 counted cells, and the percentage of apoptotic or necrotic cells was determined by […] the number of apoptotic or necrotic cells by the total number of cells counted by 100. The experiment was performed three times in triplicate.

The subject of the next assay is caspase 9 in HepG2 cells. In words: ELISA caspase 9 level, HepG2. The format is cell-based, human. Conditions: HepG2, IC50, 48 h. From the text: (§6) The overexpression of antiapoptotic proteins, such as Bcl-2, and the underexpression of proapoptotic proteins, such as Bax, are two common ways that the apoptotic pathway is suppressed in cancer. […] Therefore, a rise in Bax expression and a decrease in Bcl-2 can trigger the apoptotic process and eradicate cancer cells. […] This in turn activates the intrinsic pathway of apoptosis; thus, we next examined their effect on caspase 9 levels. Caspases (cysteine aspartyl-specific proteases), a class of cysteine proteins that cleave target proteins, play a role in executing apoptosis. […] Moreover, we evaluated the effect of the two compounds on the vascular endothelial growth factor VEGF expression. VEGF is one of the pro-angiogenic proteins; upon binding to VEGF receptors in the endothelial cells, it activates phosphorylation, causing increased angiogenesis and resulting in abnormal vasculature in the tumor tissue.
(§7) The protein levels of Bax, Bcl2, caspase 9, and VGEF were estimated using an ELISA assay. […] Cells from each group were scraped off and washed with PBS and then cell pellets were collected from each flask. […] The supernatants were then used for ELISA assays in accordance with the manufacturer’s instructions for the ELISA kits (Sunlong Biotech, China), and absorbance and calculations were carried out using an ELISA reader (FLUOstar Omega, BMG, Labtech, Germany).
In general terms: ELISA stands for enzyme-linked immunosorbent assay.

For assay [3], the system named is normal mammalian Vero cells. The assay is described as follows: Cytotoxicity against normal Vero cells. The class given is cell-based. Conditions: Chlorocebus sabaeus.
The test system of a further assay is VEGF in HepG2 cells. In words: ELISA VEGF level, HepG2. As to conditions: HepG2, IC50, 48 h, compared to control and 5-FU treated cells. The format is cell-based, human.
Excerpt: as §6, §7

Assay [4] concerns Bax/Bcl-2 ratio in HepG2 cells. In words: ELISA Bax/Bcl-2 ratio, HepG2. Conditions: HepG2, IC50, 48 h, compared to control and 5-FU treated cells. The format is cell-based, human.
Excerpt: as §6, §7

Assay [5] has as its system HepG2 human hepatocellular carcinoma cells. In words: MTT cytotoxicity assay, HepG2. The format is cell-based. Conditions: for IC50: Homo sapiens, MTT, 48 h, means ± SD of three independent experiments; for SI Values HepG2: selectivity index, HepG2 over normal Vero cells. How it is done:
as §1, §2, §3

The test system of assay [6] is HepG2 cells. The assay is described as follows: Annexin V-FITC/PI flow cytometric apoptosis analysis, HepG2. The format is cell-based, human. Conditions: HepG2, IC50 concentration, 48 h. The source says:
(§8) Propidium iodide (PI) and annexin-V-FITC were used in a flow cytometric investigation on HepG2 and MCF-7 cells to better understand the manner of cell death caused by 4e and 4i, respectively. […] Apoptosis evasion is one of the hallmarks of cancer progression because the loss of apoptosis control prolongs cancer cell survival and allows for the accumulation of mutations that can promote angiogenesis and cell proliferation, disrupt differentiation, and increase invasiveness throughout tumor progression, thus one of the key purposes of apoptosis is to prevent cancer.
(§9) The apoptotic activity of compounds 4e and 4i was measured using the annexin V fluorescein isothiocyanate (FITC)/propidium iodide (PI) apoptosis detection kit (BioVision, USA, Catalog #: K101-25) following the manufacturer’s instructions. […] Cells were collected by trypsinization, washed twice using PBS and then 1 × 10^5 cells were resuspended in PBS and stained for 15 min at room temperature in the dark with 5 µL Annexin V-FITC and 5 µL PI in 1x binding buffer. Annexin V-FITC binding was analyzed by a BD FACS Calibur flow cytometry (Ex = 488 nm; Em = 530 nm) using a FITC signal detector (FL1) and PI staining by the phycoerythrin emission signal detector (FL2).

In assay [7] the test system is HepG2 cells. In words: Cell cycle analysis by flow cytometry (PI), HepG2. The class given is cell-based, human. Conditions: HepG2, IC50 concentration, 48 h, vs control. How it is done: (§10) The cell cycle is made up of several intricately linked processes that enable the cell to develop and multiply. In cancer, the genetic and epigenetic abnormalities in the cell cycle-related genes result in an unchecked proliferation of mutated cells and alteration of cell cycle progression. For further investigation of the inhibitory effects of 4e and 4i compounds on the proliferation of HepG2 and MCF-7 cells, respectively, we examined the cell cycle distribution and DNA content after 48 h of the treatment. […] Consequently, the arrest in the G2/M phase mediates apoptosis via a mitochondrial apoptotic pathway.
(§11) Immediately after incubation, trypsinization was used to collect the cells, which were then washed twice with ice-cold PBS before being fixed in 70% (v/v) ethanol at […], re-suspended with 0.1 mg/mL RNase, stained with […] propidium iodide (PI), and incubated for 1 h. The DNA contents of the cells were then analyzed by flow cytometry using an FL2 (λex/em 493/636 nm) signal detector (Abcam, UK, ab139418).
(In flow cytometry, cells or beads pass a laser one at a time.)

In assay [8] the test system is MCF-7 cells. In words: AO/EB fluorescent stain, apoptotic and necrotic cells, MCF-7. Conditions: MCF-7, IC50 concentration, 48 h, vs untreated control cells. The class given is cell-based, human. On the procedure: as §4, §5
The subject of the next assay is VEGF in MCF-7 cells. The assay is described as follows: ELISA VEGF level, MCF-7. The format is cell-based, human. As to conditions: MCF-7, IC50, 48 h, compared to control and 5-FU treated cells.
Excerpt: as §6, §7

A further assay deals with caspase 9 in MCF-7 cells. The assay is described as follows: ELISA caspase 9 level, MCF-7. Conditions: MCF-7, IC50, 48 h. The class given is cell-based, human.
Excerpt: as §6, §7

Assay [9] concerns MCF-7 cells. The assay is described as follows: Cell cycle analysis by flow cytometry (PI), MCF-7. The class given is cell-based, human. Conditions: MCF-7, IC50 concentration, 48 h, vs control, p < 0.05. How it is done: as §10, §11
Assay [10] concerns Bax/Bcl-2 ratio in MCF-7 cells. The assay is described as follows: ELISA Bax/Bcl-2 ratio, MCF-7. As to conditions: MCF-7, IC50, 48 h, compared to control and 5-FU treated cells. The format is cell-based, human.
Excerpt: as §6, §7

Assay [11] concerns MCF-7 cells. The assay is described as follows: Annexin V-FITC/PI flow cytometric apoptosis analysis, MCF-7. As to conditions: MCF-7, IC50 concentration, 48 h. The class given is cell-based, human.
Excerpt: as §8, §9

The subject of the next assay is lung A549 cancer cells. More on the design: method as in PMID 31313595. Conditions: cited from earlier work.
Assay [12] has as its system cervical HeLa cancer cells. More on the design: method as in PMID 31313595. As to conditions: cited from earlier work.
In assay [13] the test system is breast cancer MCF-7 cells. More on the design: method as in PMID 31313595. As to conditions: cited from earlier work.

In brackets after ≈: the same amount, converted by molar mass.

By IC50 is commonly meant the midpoint of a concentration-inhibition curve.

On to `CCOc1ccccc1N1CCN(CC(=O)Nc2nnc(-c3ccc(Cl)cc3)s2)CC1` [Compound 4e, N-(5-(4-Chlorophenyl)-1,3,4-Thiadiazol-2-yl)-2-(4-(2-Ethoxyphenyl)Piperazin-1-yl)Acetamide], for which the IC50 in [1] was found to be 5.36 ± 0.36 µg/mL (≈ 11.7 µM); in [3], 154 ± 32.2 µg/mL (≈ 337 µM); in assay [5] (HepG2) it was 3.13 ± 0.2 µg/mL (≈ 6.83 µM). Besides, in assay [1], the “SI Values MCF-7” value is 28.79. Also, the “apoptosis and necrosis (AO/EB stain)” value with HepG2 cells [2] was “significantly enhanced apoptosis and necrosis”. Moreover, the “caspase 9 level” value with caspase 9 in HepG2 cells is on record as “significantly enhanced”. Further, the VEGF level entry with VEGF in HepG2 cells is reported as “significantly suppressed”. Moreover, in assay [4], the Bax/Bcl-2 ratio result is “significant increase”. Besides, in [5] (HepG2, 4b vs 4a, 4e vs 4f), the “fold increase in efficacy relative to parent analogue” value turned out to be 12 fold. The “SI Values HepG2” value in [5] was determined as 49.20. Besides, in the assay with HepG2 cells [6], the “main mode of cell death (annexin-V/PI)” value was “apoptosis”. Further, in the assay on HepG2 cells [6] (vs untreated cells), the “total cell death (annexin-V/PI)” value is “induced significant total cell death”. The cell cycle arrest result with HepG2 cells [7] is on record as “significantly arrested HepG2 cells in the S phase”.

`O=C(CN1CCC(Cc2ccccc2)CC1)Nc1nnc(-c2ccc(Cl)cc2)s1` [Compound 4i, 2-(4-Benzylpiperidin-1-yl)-N-(5-(4-Chlorophenyl)-1,3,4-Thiadiazol-2-yl)Acetamide]: the “apoptosis and necrosis (AO/EB stain)” value with MCF-7 cells [8] is “significantly enhanced apoptosis and necrosis”. In addition, the IC50 in assay [1] was 2.32 ± 0.21 µg/mL (≈ 5.43 µM); in assay [3], 85.29 ± 0.52 µg/mL (≈ 200 µM); in assay [5] (HepG2), 6.51 ± 0.03 µg/mL (≈ 15.2 µM). Also, the “SI Values MCF-7” value in assay [1] amounted to 36.70. Moreover, the VEGF level result with VEGF in MCF-7 cells is listed as “significantly suppressed”. Further, in [5], the “SI Values HepG2” value stood at 13.10. Besides, the “caspase 9 level” value in the assay with caspase 9 in MCF-7 cells is on record as “significantly enhanced”. Besides, the cell cycle arrest result with MCF-7 cells [9] is listed as “induced a significant cell growth arrest for MCF-7 cells at the G2/M phase”. Moreover, in [10], the Bax/Bcl-2 ratio result is “significant increase”. In addition, the “main mode of cell death (annexin-V/PI)” value with MCF-7 cells [11] is recorded as “apoptosis”. The “total cell death (annexin-V/PI)” value with MCF-7 cells [11] (vs untreated cells) is listed as “induced significant total cell death”.

On to `CC(C)(C)c1nc(NC(=O)CN2CCN(c3ccccc3)CC2)sc1Cc1ccc(Cl)cc1` [VII], for which the IC50 with lung A549 cancer cells is 0.2 µM; in assay [12], 4.2 µM.

For the compound `CCN1CCN(CC(=O)Nc2nc(C(C)(C)C)c(Cc3ccc(Cl)cc3)s2)CC1` [VI], in assay [13], the IC50 is 12.5 µM.

(Values after PMC9781117, “New 5-Aryl-1,3,4-Thiadiazole-Based Anticancer Agents: Design, Synthesis, In Vitro Biological Evaluation and In Vivo Radioactive Tracing Studies” (Pharmaceuticals, 2022).)
